Read-outs that look alike come from different tables or passages of the source. Values belong to the compound of their own block, whether it stands above or below them. No end group written: not given here.
Tests used:
SIRT3 [1] = molecular target: T1, SIRT3 (Homo sapiens, UniProt Q9NTG7); experiment: Fluorescence polarization assay, SIRT3 deacetylation of Histone H4-based peptide substrate; assay type: biochemical
T1 construct: amino acid residues 102-399 of human SIRT3 with an N-terminal His-tag; His-tag (N); made in house; host or cells: E. coli
T1 sequence (Q9NTG7 102-399): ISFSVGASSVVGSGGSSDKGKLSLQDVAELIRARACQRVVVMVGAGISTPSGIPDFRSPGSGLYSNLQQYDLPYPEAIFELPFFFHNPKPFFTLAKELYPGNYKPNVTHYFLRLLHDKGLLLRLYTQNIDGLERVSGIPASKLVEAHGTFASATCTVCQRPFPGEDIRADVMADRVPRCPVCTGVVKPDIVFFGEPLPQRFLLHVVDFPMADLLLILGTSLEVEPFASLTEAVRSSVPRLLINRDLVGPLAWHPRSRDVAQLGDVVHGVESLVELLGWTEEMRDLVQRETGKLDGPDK
Source text: A fluorescence polarization assay was used to identify modulators of SIRT3 activity. The same assay may be used to identify modulators of any sirtuin protein. The assay utilizes a peptide substrate based on a fragment of Histone H4, a known sirtuin deacetylation target. […] The peptide is labeled with the fluorophore MR121 (excitation 635 nm/emission 680 nm) at the C-terminus and biotin at the N-terminus.
The peptide substrate is exposed to a sirtuin protein in the presence of NAD^+ to allow deacetylation of the substrate and render it sensitive to cleavage by trypsin. Trypsin is then added and the reaction is carried to completion (i.e., the deacetylated substrate is cleaved) releasing the MR121 fragment. Streptavidin is then added to the reaction where it can bind both the uncleaved substrate (i.e., any remaining acetylated substrate) and the non-fluorescent portion of the cleaved peptide substrate (i.e., the biotin containing fragment). The fluorescence polarization signal observed for the full length peptide substrate bound to streptavidin is higher than the fluorescence polarization signal observed for the released MR121 C-terminal fragment. Therefore, the fluorescence polarization obtained is inversely proportional to the level of deacetylation (e.g., the signal is inversely proportional to the activity of the sirtuin protein). Results are read on a microplate fluorescence polarization reader (Molecular Devices Spectramax MD) with appropriate excitation and emission filters.
The fluorescence polarization assays may be conducted as follows: 0.5 μM peptide substrate and 50 μM βNAD^+ is incubated with 2 nM of SIRT3 for 60 minutes at 37° C. in a reaction buffer (25 mM Tris-acetate pH8, 137 mM Na—Ac, 2.7 mM K—Ac, 1 mM Mg—Ac, 0.1% Pluronic F127, 10 mM CaCl2, 1 mM TCEP, 0.025% BSA). Test compounds are solubilized in DMSO and are added to the reaction at 11 concentrations ranging from 0.7 μM to 100 μM. The SIRT3 protein used in the assays corresponded to amino acid residues 102-399 of human SIRT3 with an N-terminal His-tag. The protein was overexpressed in E. coli and purified on a nickel chelate column using standard techniques. After the 60 minute incubation with SIRT3, nicotinamide is added to the reaction to a final concentration of 3 mM to stop the deacetylation reaction and 0.5 μg/mL of trypsin is added to cleave the deacetylated substrate. The reaction is incubated for 30 minutes at 37° C. in the presence of 1 mM streptavidin. Fluorescent polarization is determined at excitation (650 nm) and emissions (680 nm) wavelengths. The level of activity of the sirtuin protein in the presence of the various concentrations of test compound are then determined and may be compared to the level of activity of the sirtuin protein in the absence of the test compound, and/or the level of activity of the sirtuin proteins in the negative control (e.g., level of inhibition) and positive control (e.g., level of activation) described below.
A control for activation of sirtuin activity is conducted using 0.5 μg/mL of sirtuin protein to reach baseline deacetylation of the substrate (e.g., to determine normalized sirtuin activity).

SIRT1 [2] = molecular target: T2, SIRT1 (Homo sapiens, UniProt Q96EB6); experiment: Fluorescence polarization assay, SIRT1 deacetylation of p53-based peptide substrate; assay type: biochemical; conditions: for EC50: activation of SIRT1, compounds 1-18 with peptide 1 (MR121), compounds 19-56 with peptide 2 (5TMR), read-out: ED50 (the source's name); for IC50: inhibition of SIRT1
T2 sequence (Q96EB6 1-747): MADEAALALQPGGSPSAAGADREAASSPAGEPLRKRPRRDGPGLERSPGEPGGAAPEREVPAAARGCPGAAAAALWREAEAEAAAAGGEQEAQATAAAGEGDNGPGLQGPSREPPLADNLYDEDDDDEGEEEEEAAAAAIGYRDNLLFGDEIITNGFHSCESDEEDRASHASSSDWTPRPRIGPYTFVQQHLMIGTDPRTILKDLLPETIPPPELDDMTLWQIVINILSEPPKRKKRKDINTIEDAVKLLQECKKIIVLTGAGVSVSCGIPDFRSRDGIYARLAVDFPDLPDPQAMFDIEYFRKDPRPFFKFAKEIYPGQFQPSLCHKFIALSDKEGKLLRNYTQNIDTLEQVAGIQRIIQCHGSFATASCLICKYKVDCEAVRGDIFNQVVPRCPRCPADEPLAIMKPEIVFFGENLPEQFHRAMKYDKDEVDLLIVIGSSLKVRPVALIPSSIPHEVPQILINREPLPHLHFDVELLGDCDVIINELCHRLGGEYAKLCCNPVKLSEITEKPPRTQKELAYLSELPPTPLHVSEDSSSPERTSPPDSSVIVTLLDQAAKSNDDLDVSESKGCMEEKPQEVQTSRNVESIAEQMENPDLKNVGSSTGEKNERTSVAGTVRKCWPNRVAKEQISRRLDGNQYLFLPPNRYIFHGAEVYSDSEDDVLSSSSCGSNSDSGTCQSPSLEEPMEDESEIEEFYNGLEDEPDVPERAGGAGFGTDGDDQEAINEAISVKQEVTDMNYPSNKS

SIRT1 [3] = molecular target: T2, SIRT1; conditions: Sirt1, nicotinamide release, cited from earlier work
Sirt3 [4] = molecular target: T3, Sirt3 (Homo sapiens, UniProt Q9NTG7); conditions: Sirt3, Biomol Fluor de Lys product literature, cited from earlier work
T3 sequence (Q9NTG7 1-399): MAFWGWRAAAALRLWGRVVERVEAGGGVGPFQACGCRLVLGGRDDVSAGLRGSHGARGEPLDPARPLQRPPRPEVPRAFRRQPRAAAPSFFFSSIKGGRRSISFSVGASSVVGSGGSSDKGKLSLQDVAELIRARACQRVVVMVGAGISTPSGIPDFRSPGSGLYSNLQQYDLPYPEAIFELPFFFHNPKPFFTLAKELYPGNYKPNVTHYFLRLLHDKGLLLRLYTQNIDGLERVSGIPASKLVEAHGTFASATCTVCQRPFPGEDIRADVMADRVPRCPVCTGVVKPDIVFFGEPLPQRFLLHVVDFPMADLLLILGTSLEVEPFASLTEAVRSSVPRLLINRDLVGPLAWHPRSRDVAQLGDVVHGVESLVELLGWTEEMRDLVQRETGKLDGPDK

Sirt2 = molecular target: T4, Sirt2 (Homo sapiens, UniProt Q8IXJ6); conditions: Sirt2, Biomol Fluor de Lys product literature, cited from earlier work
T4 sequence (Q8IXJ6 1-389): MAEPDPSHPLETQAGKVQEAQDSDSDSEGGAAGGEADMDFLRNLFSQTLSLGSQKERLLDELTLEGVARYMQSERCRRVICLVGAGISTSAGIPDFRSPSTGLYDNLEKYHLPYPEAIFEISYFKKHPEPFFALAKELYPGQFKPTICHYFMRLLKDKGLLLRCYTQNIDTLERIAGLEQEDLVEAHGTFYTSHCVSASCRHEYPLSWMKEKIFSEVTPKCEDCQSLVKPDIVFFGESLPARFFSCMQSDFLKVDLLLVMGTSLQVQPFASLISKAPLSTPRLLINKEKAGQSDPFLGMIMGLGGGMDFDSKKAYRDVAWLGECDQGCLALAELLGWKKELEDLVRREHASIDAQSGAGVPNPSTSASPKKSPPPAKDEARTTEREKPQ

SIRT1 [5] = molecular target: T2, SIRT1; conditions: Sirt1, Biomol Fluor de Lys product literature, cited from earlier work
[6] = read-out: ED50 (the source's name)
[7] = Km of NAD with the named peptide substrate, read-out: NAD Km
[8] = Km of NAD with the named peptide substrate, Kaeberlein et al., read-out: NAD Km
[9] = Kaeberlein et al., read-out: Peptide Km

- EC50 (SIRT3 [1]; [6]): 51 to 100 µM
Compound: O=C(NCc1ccncc1)c1cc(-c2ccsc2)nc2ccccc12 [Compound 1]

- EC50 (SIRT1 [2]): 101 to 150 µM
Compound: O=C(NCCN1CCOCC1)c1cc(-c2cccs2)nc2ccccc12 [Compound 5]

- EC50 (SIRT1 [2]): 101 to 150 µM
Compound: O=C(NCCN1CCOCC1)c1cc(-c2cccs2)nc2ccc(F)cc12 [Compound 7]

- EC50 (SIRT3 [1]; [6]): 51 to 100 µM
Compound: O=C(NNc1c2ccccc2nc2ccccc12)c1cccnc1 [Compound 11]

- EC50 (SIRT1 [2]): 51 to 100 µM
Compound: Cc1ccc2nc(-c3ccccc3)cc(C(=O)NCCN3CCOCC3)c2c1 [Compound 12]

- IC50 (SIRT1 [2]): > 150 µM
Compound: Cc1ccc2nc(-c3ccco3)cc(C(=O)NCCCCN3CCOCC3)c2c1 [Compound 72]

- IC50 (SIRT1 [2]): < 50 µM
Compound: O=C(NNc1c2c(nc3ccccc13)CCCC2)c1ccccn1 [Compound 73]

- IC50 (SIRT1 [2]): > 150 µM
Compound: Cc1nc(-c2cccc(NC(=O)c3c4ccccc4nc4ccccc34)c2)cs1 [Compound 76]

- IC50 (SIRT1 [2]): > 150 µM
Compound: COc1ccccc1NC(=O)Nc1c2c(nc3ccccc13)CCCC2 [Compound 77]

- IC50 (SIRT1 [2]): 101 to 150 µM
Compound: COc1cc(NC(=O)Nc2c3c(nc4ccccc24)CCCC3)cc(OC)c1OC [Compound 78]

- IC50 (SIRT1 [2]): > 150 µM
Compound: O=C(Nc1ccccc1)c1c2c(nc3ccccc13)-c1ccccc1CC2 [Compound 79]

- EC50 (SIRT3 [1]; [6]): 51 to 100 µM
Compound: O=C(O)c1c(O)c(-c2ccccc2)nc2ccccc12 [Compound 80]

Continued, compound first:

Compound: O=C(NNc1c2ccccc2nc2ccccc12)c1ccccn1 [Compound 2]
- EC50 (SIRT1 [2]): 51 to 100 µM

Compound: FC(F)(F)c1ccnc(NNc2c3ccccc3nc3ccccc23)n1 [Compound 33]
- EC50 (SIRT1 [2]): 101 to 150 µM

Compound: Cc1cc(C)nc(Nc2c3ccccc3nc3ccccc23)c1 [Compound 74]
- IC50 (SIRT1 [2]): > 150 µM

Compound: COc1cc(C(=O)NNC(=O)c2c3ccccc3nc3ccccc23)cc(OC)c1OC [Compound 75]
- IC50 (SIRT1 [2]): < 50 µM

Compound: CC(=O)Nc1ccc(Nc2cc(C)nc3c(C)cccc23)cc1 [Compound 81]
- IC50 (SIRT3 [1]): 101 to 150 µM

Compound: Oc1ccc(C=Cc2cc(O)cc(O)c2)cc1 [resveratrol, reference compound]
- EC50 (SIRT3 [1]; activation of SIRT3, read-out: ED50 for activation of SIRT3): > 300 µM

Compound: p53 19 mer (aa 368-386) no FL: p53 19 mer (aa 368-386) peptide substrate without fluorescent label, McDonagh et al. (HLKSKKGQSTSRHKKLMFK; UniProt P04637 368-386, looked up, fragment)
- Km (SIRT1 [3]; Km of NAD with the named peptide substrate, McDonagh et al., read-out: NAD Km): 133 µM
- Km (SIRT1 [3]; McDonagh et al., read-out: Peptide Km): 10.3 µM

Compound: p53 (aa 317-320) *FL: p53 (aa 317-320) peptide substrate with fluorescent label, Biomol Fluor de Lys SIRT2 and SIRT3 kits (QPKK; also: fluorescent label; UniProt P04637 317-320, looked up, fragment)
- Km (Sirt3 [4]; [7]): 2030 µM
- Km (Sirt3 [4]; read-out: Peptide Km): 32 µM
- Km (Sirt2; [7]): 547 µM
- Km (Sirt2; read-out: Peptide Km): 186 µM

Compound: p53 (aa 368-386) *FL: p53 (aa 368-386) peptide substrate with fluorescent label, Kaeberlein et al. (HLKSKKGQSTSRHKKLMFK; also: fluorescent label; UniProt P04637 368-386, looked up, fragment)
- Km (SIRT1 [3]; [8]): 192 µM
- Km (SIRT1 [3]; [9]): 87.6 µM

Compound: p53 (aa 368-386) no FL: p53 (aa 368-386) peptide substrate without fluorescent label, Kaeberlein et al. (HLKSKKGQSTSRHKKLMFK; UniProt P04637 368-386, looked up, fragment)
- Km (SIRT1 [3]; [8]): 132 µM
- Km (SIRT1 [3]; [9]): 10.3 µM

Compound: p53 (aa 379-382) *FL: p53 (aa 379-382) peptide substrate with fluorescent label, Biomol Fluor de Lys SIRT1 kit (RHKK; also: fluorescent label; UniProt P04637 379-382, looked up, fragment)
- Km (SIRT1 [5]; [7]): 558 µM
- Km (SIRT1 [5]; read-out: Peptide Km): 64 µM

— patent publication US20080293081A1, “Fluorescence Polarization Assays for Acetyltransferase/Deacetylase Activity” (Sirtris Pharmaceuticals, Inc., priority 2005, published 2008)
